Holding throughout (type): cell-based, human
The subject of one test is MDA-MB-231 cells. In words: MTT assay (metabolic activity), Example 2. Conditions: 1 μM doxorubicin. As to the method: MTT assay. Measures metabolic activity. Cells reduce membrane permeable salt MTT (yellow) to formazan crystals (purple). Incubate for three days with treatment. Incubate for four hours with MTT. Add solubilization solution. Incubate for twelve hours. Measure absorbance of every well at OD570 nm-OD650 nm. See Riss et al., The Assay Guidance Manual (Eli Lilly & Company and the National Center for Advancing Translational Sciences. Bethesda, MD, USA, 2016). Hydrogels added to 7.4 pH with no drug had decreased metabolic activity. Hydrogels added to 6.5 pH with drug had decreased metabolic activity. Base-releasing hydrogel reduced cell proliferation, migration, and metabolic activity at an alkaline pH. Base-releasing hydrogel improved doxorubicin efficacy against cell proliferation, migration, and metabolic activity at an alkaline pH. Neutral-pH-adapted cells prefer neutral pH.
The metabolism of cancer cells can be measured by the activity of the mitochondrial reductase enzyme. […] The metabolic activity of the cells in culture can be measured by this conversion of MTT to formazan crystals. The absorbance can then be recorded at OD570 nm and OD650 nm to quantify the formazan produced by the cells through the mitochondrial reductase conversion from MTT. […] The absorbance is measured spectrophotometrically via a plate reader.
On the technique in general: Formazan colour is commonly taken as a measure of viable cells.

Test [1] concerns MDA-MB-231 breast cancer cells. The test can be described thus: pH-dependent doxorubicin efficacy on cell proliferation. The conditions noted are these: 0.25 μM doxorubicin, 5-day treatment.
The subject of test [2] is MDA-MB-231 breast cancer cell line. In words: Cell proliferation assay (image confluency, manual cell count). Conditions: 1 μM doxorubicin. As to the method:
Cell viability. Incubated MDA-MB-231 cells were passaged from a confluent T-flask into a 12-well culture plate, and the treatment hydrogels were added. For the viability study, the effect of modified PEG hydrogels bicarbonate concentrations of 200, 400, 600, and 800 mM was analyzed along with the control group with no treatment (bicarbonate), and a vehicle control of PEG with no bicarbonate. The cells were imaged every twenty-four hours under Nikon TS 100 inverted light microscope attached with Excelis HD camera and processed using an ImageJ image processing macro (performed by Gavin Mays) to estimate cell confluency from the imaged area coverage. At the end of day 5, the number of live and dead cells were estimated by Trypan staining and cell counting using a hemocytometer. Percentage viability was calculated from the number of live cells as a fraction of total cells.
Cell proliferation assay. MDA-MB-231 breast cancer cell line. Cells given pH, hydrogel, sodium bicarbonate, and doxorubicin treatment. At twenty-four hours, cell confluency is observed and recorded via image processing. At Day 6, cell counting was performed using a hemocytometer. All assays increased in confluency. […] Assays without hydrogels consistent with confluency analysis. Assays with any hydrogel have low manual cell counts.

Consider one compound from patent US12409187B2, “PH regulating hydrogels that neutralize cancer cell environment acidosis and increase chemotherapy efficacy” (Brown University, priority 2021, dated 2025).

As for `COc1cccc2c1C(=O)c1c(O)c3c(c(O)c1C2=O)C[C@@](O)(C(=O)CO)C[C@@H]3O[C@H]1C[C@H](N)[C@H](O)[C@H](C)O1` [doxorubicin], the “metabolic activity versus assays without doxorubicin” value with MDA-MB-231 cells was “statistically significantly less metabolic activity”. The “efficacy at preventing cell proliferation” value in test [1] (pH 6.5) turned out to be 40%. For the same compound, the “effectiveness at preventing cell proliferation” value in test [1] (pH 7.4) is reported as “approximately 95%”. Also, the “change of cell proliferation over the six-day trial period” value in test [2] is reported as “decrease”.
